This is an account of results in patent publication US6093730A, “Substituted isoquinoline-3-carboxamides, their preparation and their use as pharmaceuticals” (Hoechst Marion Roussel Deutschland GmbH, priority 1997, dated 2000).

pIC50: −log10 of the molar value.

By pIC50 is commonly meant the negative decadic logarithm of the IC50, by convention in mol/L.

The target of the first assay is T1, prolyl-4-hydroxylase (Gallus gallus, UniProt P16924).
T1 sequence (P16924 1-516): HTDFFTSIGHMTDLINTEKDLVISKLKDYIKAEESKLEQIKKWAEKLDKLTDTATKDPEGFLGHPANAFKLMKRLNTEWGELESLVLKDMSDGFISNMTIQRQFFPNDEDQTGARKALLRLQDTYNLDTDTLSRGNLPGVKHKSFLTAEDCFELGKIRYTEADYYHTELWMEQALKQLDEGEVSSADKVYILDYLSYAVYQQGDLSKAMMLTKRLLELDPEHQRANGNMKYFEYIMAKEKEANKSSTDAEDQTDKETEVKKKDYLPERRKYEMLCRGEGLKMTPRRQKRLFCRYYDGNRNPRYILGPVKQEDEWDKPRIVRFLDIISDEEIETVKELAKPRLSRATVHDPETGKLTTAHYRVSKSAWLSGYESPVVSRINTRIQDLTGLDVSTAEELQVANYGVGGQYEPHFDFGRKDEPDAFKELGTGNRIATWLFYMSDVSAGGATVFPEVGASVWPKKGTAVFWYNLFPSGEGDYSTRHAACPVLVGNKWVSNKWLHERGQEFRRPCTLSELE
T1 sequence (P09102 23-515 partner): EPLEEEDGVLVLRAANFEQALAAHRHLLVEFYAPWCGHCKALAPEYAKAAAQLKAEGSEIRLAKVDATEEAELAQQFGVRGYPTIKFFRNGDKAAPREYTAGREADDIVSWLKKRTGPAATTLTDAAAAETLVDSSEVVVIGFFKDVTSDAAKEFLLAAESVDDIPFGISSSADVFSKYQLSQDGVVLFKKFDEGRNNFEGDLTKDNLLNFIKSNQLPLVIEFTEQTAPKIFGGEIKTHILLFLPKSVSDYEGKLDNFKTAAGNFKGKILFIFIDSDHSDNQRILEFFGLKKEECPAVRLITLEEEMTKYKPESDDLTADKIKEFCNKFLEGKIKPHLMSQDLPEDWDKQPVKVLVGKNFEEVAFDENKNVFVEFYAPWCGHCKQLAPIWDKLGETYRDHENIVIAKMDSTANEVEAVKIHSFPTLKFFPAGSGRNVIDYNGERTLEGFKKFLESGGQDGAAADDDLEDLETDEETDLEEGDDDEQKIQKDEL
As to the kind of experiment: Combined liver perfusion/enzyme assay (prolyl-4-hydroxylase inhibition after rat liver perfusion). Type of assay: biochemical, chicken. The arrangement: The enzyme is purified from 14 day-old chicken embryos; from tissue; host or cells: 14-day-old chicken embryos. The following applies: after 120 min rat liver perfusion; 100 or 50 μg/ml added at t=0 and 60 min. The procedure: In order to investigate the inhibitory action of such active proinhibitors, the compounds were employed in perfusion experiments on isolated rat liver. The inhibitory action was then measured in a prolyl-4-hydroxylase assay.
Unfasted male Wistar rats of 200-300 g body weight (Hoe:WISKf(SPF71)) were anesthetized with pentobarbital (5 mg/100 g of body weight i.p.). After cannulation of the portal vein, the liver was washed with 100 ml of heparinized saline solution (5 lU/ml) of 37° C. for 3 min. The fluid left the liver by the incised vena cava. The organ was then removed, attached to the perfusion apparatus and perfused at a flow rate of 30 ml/min with 100 ml of medium for 2 hours under recirculating conditions. Krebs-Ringer buffer containing bovine erythrocytes was used for the perfusion. For this, bovine blood was mixed 1:1 with a citrate solution in the slaughterhouse immediately after removal. This mixture was centrifuged at 6000 rpm for 10 min and the supernatant was removed. This process was repeated once using saline solution and twice using Krebs-Ringer buffer. The final perfusion solution contained 33.3% of the erythrocyte sediment and 66.7% of Krebs-Ringer buffer (Schimassek, H. BIOCHEM. Z. 336 (1963) 460-467).
Perfusion apparatus (Ryoo and Tarver, H.P.S.E.B.M. 128 (1968) 760-72): The central element of the apparatus is a thermostated cylinder having a removable plate for the storage of the organ. The outlet tube is extended and its lower end is attached to a peristaltic pump. Before the return of the perfusate into the organ bath, it is passed through a glass spiral, which serves as a heat exchanger, which keeps the temperature constant at 37° C. At the bottom of the cylinder, the perfusate is aerated with 70 ml of a CO2 /O2 mixture (5:95%) per minute. In order to avoid foam formation, 14 μl of 0.1% strength Genapol® PF-10 solution are added per ml of perfusion solution. Samples for analysis are removed from the perfusate at a position before entry into the perfused organ.
The test substances were added to the perfusion solution at time t=0 and 60 min in concentrations of 100 or 50 μg/ml in each case. After a perfusion time of 120 min, a sample of the perfusion solution was removed for analysis.
The inhibitory activity of the metabolites which are formed in the liver during the two-hour perfusion was determined in an in vitro prolyl-4-hydroxylase assay. The enzyme is purified from 14 day-old chicken embryos as described in the literature (Tuderman et al., EUR.J.BIOCHEM. 52 (1975) 9-16; Kedersha and Berg, COLLAGEN REL. RES. 1 (1981) 345-53). The enzyme test is carried out according to Kaule and Gunzler, ANAL. BIOCHEM. 184 (1990) 291-97). Dose-response curves were obtained by means of dilution series, starting from the undiluted perfusion solution.
In the case of `COc1ccc2c(O)c(C(=O)NCCO)nc(Cl)c2c1` [Example 21, 1-Chloro-4-hydroxy-7-methoxyisoquinoline-3-carboxylic acid N-(2-hydroxyethyl)amide], the negative logarithm of the IC50 (pIC50) is 5.12.
As for `CC(C)Oc1ccc2c(O)c(C(=O)NCCO)nc(Cl)c2c1` [Example 19, 1-Chloro-4-hydroxy-7-(2-propyloxy)isoquinoline-3-carboxylic acid N-(2-hydroxyethyl)amide], the pIC50 is 4.98.
`CCCCOc1ccc2c(O)c(C(=O)NCCO)nc(Cl)c2c1` [Example 23, 7-(1-Butyloxy)-1-chloro-4-hydroxyisoquinoline-3-carboxylic acid N-(2-hydroxyethyl)amide]: the pIC50 is 4.66.
On the same count and under the same terms, for `CC(C)Oc1ccc2c(Cl)nc(C(=O)NCCO)c(O)c2c1` [Example 20, 1-Chloro-4-hydroxy-6-(2-propyloxy)isoquinoline-3-carboxylic acid N-(2-hydroxyethyl)amide] the value was 4.78.
On the same count and under the same terms, for `COc1ccc2c(Cl)nc(C(=O)NCCO)c(O)c2c1` [Example 22, 1-Chloro-4-hydroxy-6-methoxyisoquinoline-3-carboxylic acid N-(2-hydroxyethyl)amide] the value was 5.19.

A further assay has as its system collagen biosynthesis.
Test: not given
The following applies: Franklin et al.; cited from earlier work.
With `O=C(O)CNC(=O)c1ncc2ccccc2c1O` [N-((4-Hydroxyisoquinolin-3-yl)carbonyl)glycine], the “in-vivo activity on collagen biosynthesis” value is recorded as “poor”.

A further assay concerns hydroxyproline formation. As to the kind of experiment: Carbon tetrachloride-induced liver fibrosis model in rats, inhibition of hydroxyproline formation. The assay is classed as in vivo, rat. The following applies: 20 mg/kg (total), intraperitoneal twice per day, two weeks with CCl4. As for the experimental part: The antifibrotic action was determined in the model of carbon tetrachloride-induced liver fibrosis. For this, rats were treated twice weekly with CCl4 (1 ml/kg) dissolved in olive oil. The test substance was administered daily, if appropriate even twice daily, orally or intraperitoneally dissolved in a suitable compatible solvent. The extent of the liver fibrosis was determined histologically and the proportion of collagen in the liver was analyzed by hydroxyproline determination as described in Kivirikko et al., ANAL. BIOCHEM. […] The fibrogenesis activity was determined by radioimmunological determination of collagen fragments and procollagen peptides in the serum.
The measurement of the inhibition of hydroxyproline formation by the test substances was based on this level.
Here the experimental animals were treated for two weeks only with carbon tetrachloride, then for the next two weeks with carbon tetrachloride and test substance. The test substances were administered intraperitoneally twice per day in the total amount indicated below in Table II,
Consider `CC(C)Oc1ccc2c(O)c(C(=O)NCC(=O)O)nc(Cl)c2c1` [Example 1, N-((1-Chloro-4-hydroxy-7-(2-propyloxy)isoquinolin-3-yl)carbonyl)glycine], for which the “Change in hydroxyproline formation” value is -55%.

Staying with this assay, now noted: 40 mg/kg (total), intraperitoneal twice per day, two weeks with CCl4.
As to `CC(C)Oc1ccc2c(O)c(C(=O)NCCO)nc(Cl)c2c1` [Example 19, 1-Chloro-4-hydroxy-7-(2-propyloxy)isoquinoline-3-carboxylic acid N-(2-hydroxyethyl)amide], the “Change in hydroxyproline formation” value is -39%.

In a further assay the test system is prolyl hydroxylase.
Test: not given
The following applies: Tschank et al.; cited from earlier work.
For the compound `O=C(O)c1ccc(C(=O)O)nc1` [pyridine-2,5-dicarboxylic acid], the “activity as inhibitors in cell culture” value is “only active as inhibitors in very high concentrations”.
For the compound `O=C(O)c1ccnc(C(=O)O)c1` [pyridine-2,4-dicarboxylic acid], the “activity as inhibitors in cell culture” value was “only active as inhibitors in very high concentrations”.

For another assay, the system named is prolyl hydroxylase.
Test: not given
The following applies: Majamaa et al.; cited from earlier work.
As for `O=C(O)c1ccc(C(=O)O)nc1` [pyridine-2,5-dicarboxylic acid], the “inhibition of prolyl hydroxylase” value was “effectively inhibited”.
For the compound `O=C(O)c1ccnc(C(=O)O)c1` [pyridine-2,4-dicarboxylic acid], the “inhibition of prolyl hydroxylase” value is reported as “effectively inhibited”.

A further assay deals with T1, prolyl-4-hydroxylase. As to the kind of experiment: Inhibition of prolyl-4-hydroxylase (Table I). The following applies: Table I; read-out: IC50. The assay is classed as biochemical. As for the experimental part:
The inhibition of this enzyme was determined as described by Kaule and Gunzler, ANAL. BIOCHEM.
With `COc1ccc2c(O)c(C(=O)NCC(=O)O)nc(Cl)c2c1` [Example 3, N-((1-Chloro-4-hydroxy-7-methoxyisoquinolin-3-yl)carbonyl)glycine], the pIC50 is 6.10.
With `COc1cccc2c(O)c(C(=O)NCC(=O)O)ncc12` [Example 12, N-((4-Hydroxy-8-methoxyisoquinolin-3-yl)carbonyl)glycine], the pIC50 is 6.19.
With `O=C(O)CNC(=O)c1nc(Cl)c2ccc(OCc3ccccc3)cc2c1O` [Example 7, N-((6-Benzyloxy-1-chloro-4-hydroxyisoquinolin-3-yl)carbonyl)glycine], the negative logarithm of the IC50 (pIC50) was 5.87.
Same read-out and setting: for `CCCCOc1ccc2cnc(C(=O)NCC(=O)O)c(O)c2c1` [Example 14, N-((6-(1-Butyloxy)-4-hydroxyisoquinolin-3-yl)carbonyl)glycine] the value was 6.46; for `CCCCOc1ccc2c(O)c(C(=O)NCC(=O)O)ncc2c1` [Example 13, N-((7-(1-Butyloxy)-4-hydroxyisoquinolin-3-yl)carbonyl)glycine], 5.03.
On the same count and under the same terms, the result for `O=C(O)CNC(=O)c1nc(Cl)c2cc(OCc3ccccc3)ccc2c1O` [Example 8, N-((7-Benzyloxy-1-chloro-4-hydroxyisoquinolin-3-yl)carbonyl)glycine] reads 6.21; that for `O=C(O)CNC(=O)c1nc(Cl)c2cc(Cl)c(Cl)cc2c1O` [Example 10, N-((1,6,7-Trichloro-4-hydroxyisoquinolin-3-yl)carbonyl)glycine], 5.44; that for `CCCCOc1ccc2c(O)c(C(=O)NCC(=O)O)nc(Cl)c2c1` [Example 5, N-((7-(1-Butyloxy)-1-chloro-4-hydroxyisoquinolin-3-yl)carbonyl)glycine], 6.15.
For the compound `CCCCOc1ccc2c(Cl)nc(C(=O)NCC(=O)O)c(O)c2c1` [Example 6, N-(-6-(1-Butyloxy-1-chloro-4-hydroxyisoquinolin-3-yl)carbonyl)glycine], the pIC50 is 5.69.
Regarding `CC(C)Oc1ccc2c(Cl)nc(C(=O)NCC(=O)O)c(O)c2c1` [Example 2, N-((1-Chloro-4-hydroxy-6-(2-propyloxy)isoquinolin-3-yl)carbonyl)glycine], the pIC50 is 5.72.
`COc1ccc2c(Cl)nc(C(=O)NCC(=O)O)c(O)c2c1` [Example 4, N-((1-Chloro-4-hydroxy-6-methoxyisoquinolin-3-yl)carbonyl)glycine]: the pIC50 is 6.24.
Turning to `CC(C)Oc1ccc2c(O)c(C(=O)NCC(=O)O)ncc2c1` [Example 15, N-((4-Hydroxy-7-(2-propyloxy)isoquinolin-3-yl)carbonyl)glycine], the pIC50 was 6.18.
On the same count and under the same terms, the result for `O=C(O)CNC(=O)c1ncc2c(Cl)cccc2c1O` [Example 11, N-((8-Chloro-4-hydroxyisoquinolin-3-yl)carbonyl)glycine] reads 6.18; that for `CC(C)Oc1ccc2c(O)c(C(=O)NCC(=O)O)nc(Cl)c2c1` [Example 1, N-((1-Chloro-4-hydroxy-7-(2-propyloxy)isoquinolin-3-yl)carbonyl)glycine], 6.92.
